Measured values published in the supplement of paper PMC6045584.
± gives the standard deviation of the averaged measurements.

Tests used:
[1] = compound: COc1ccc(C2=N[C@@H](c3ccc(Cl)cc3)[C@@H](c3ccc(Cl)cc3)N2C(=O)N2CCNC(=O)C2)c(OC(C)C)c1 [NUTLIN3]; experiment: surviving fraction relative to DMSO-only wells; higher = less growth inhibition; conditions: exposure time: 5 days
Method in brief: (§1)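 Viability values are CellTiter-Glo luminescence readings, given as surviving fraction against the median of DMSO-only wells. The readings were taken after 10 minutes at room temperature, following five days of continuous exposure to inhibitors at 0.5, 1, 5, 10, 50, 100, 500 and 1000 nM that began 24 hours after log-phase tumour cell lines were seeded at 250–500 cells per well in 384-well plates. Every line was screened three times and kept only if replicate Pearson r >0.7 and median Z' >0.3.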

[2] = compound: Nc1ncn([C@H]2C[C@H](O)[C@@H](CO)O2)c(=O)n1 [DECITABINE]; experiment: as above; conditions: exposure time: 5 days
Method in brief: as §1

| Test System | surviving fraction ([1]; 0.5 nM) | surviving fraction ([1]; 1 nM) | surviving fraction ([1]; 5 nM) | surviving fraction ([1]; 10 nM) | surviving fraction ([1]; 50 nM) | surviving fraction ([1]; 100 nM) | surviving fraction ([1]; 500 nM) | surviving fraction ([1]; 1000 nM) | surviving fraction ([2]; 0.5 nM) | surviving fraction ([2]; 1 nM) | surviving fraction ([2]; 5 nM) | surviving fraction ([2]; 10 nM) | surviving fraction ([2]; 50 nM) | surviving fraction ([2]; 100 nM) | surviving fraction ([2]; 500 nM) | surviving fraction ([2]; 1000 nM) |
| --- | --- | --- | --- | --- | --- | --- | --- | --- | --- | --- | --- | --- | --- | --- | --- | --- |
| MDAMB468 BREAST | 0.994 ± 0.026 | 0.978 ± 0.019 | 1.07 ± 0.071 | 1.02 ± 0.067 | 1.06 ± 0.07 | 1.04 ± 0.076 | 1.04 ± 0.049 | 0.982 ± 0.041 | 1.09 ± 0.083 | 1.08 ± 0.062 | 1.08 ± 0.098 | 1.03 ± 0.068 | 0.836 ± 0.04 | 0.658 ± 0.046 | 0.391 ± 0.02 | 0.341 ± 0.043 |
| LM7 BONE | 0.99 ± 0.075 | 0.977 ± 0.082 | 1.05 ± 0.025 | 1.07 ± 0.14 | 0.987 ± 0.065 | 1.08 ± 0.046 | 1.03 ± 0.1 | 0.994 ± 0.05 | 0.939 ± 0.025 | 1 ± 0.035 | 1.05 ± 0.05 | 0.983 ± 0.061 | 0.939 ± 0.027 | 0.91 ± 0.042 | 0.749 ± 0.044 | 0.742 ± 0.048 |
| 143B BONE | 1.04 ± 0.019 | 1.02 ± 0.022 | 1.03 ± 0.029 | 1.024 ± 0.0085 | 1.06 ± 0.039 | 1.029 ± 0.0099 | 1.05 ± 0.017 | 1.01 ± 0.073 | 1.09 ± 0.088 | 1.08 ± 0.09 | 1.09 ± 0.067 | 1.1 ± 0.069 | 1.13 ± 0.11 | 1.11 ± 0.076 | 0.992 ± 0.11 | 0.956 ± 0.031 |
| CADOES1 SOFT TISSUE | 0.96 ± 0.077 | 0.925 ± 0.056 | 0.982 ± 0.036 | 0.801 ± 0.17 | 0.841 ± 0.077 | 0.874 ± 0.037 | 0.741 ± 0.014 | 0.517 ± 0.017 | 0.915 ± 0.1 | 0.962 ± 0.14 | 0.772 ± 0.11 | 0.951 ± 0.047 | 0.596 ± 0.096 | 0.448 ± 0.05 | 0.316 ± 0.061 | 0.278 ± 0.041 |
| NOS1 BONE | 1.14 ± 0.072 | 0.978 ± 0.1 | 1.142 ± 0.0078 | 1.17 ± 0.16 | 1.14 ± 0.071 | 1.15 ± 0.1 | 1.08 ± 0.042 | 1.08 ± 0.04 | 1.07 ± 0.099 | 0.872 ± 0.046 | 1.28 ± 0.055 | 0.989 ± 0.08 | 1.09 ± 0.043 | 0.992 ± 0.074 | 0.977 ± 0.22 | 0.816 ± 0.031 |
| MDAMB231 BREAST | 0.97 ± 0.013 | 0.976 ± 0.028 | 1.01 ± 0.017 | 0.977 ± 0.019 | 1.06 ± 0.017 | 1.06 ± 0.02 | 1 ± 0.026 | 0.995 ± 0.022 | 1 ± 0.034 | 0.986 ± 0.024 | 1.01 ± 0.028 | 1 ± 0.022 | 1.01 ± 0.021 | 0.965 ± 0.013 | 0.865 ± 0.016 | 0.835 ± 0.039 |
| HSSYII SYNOVIAL | 0.951 ± 0.02 | 0.904 ± 0.051 | 0.976 ± 0.041 | 0.9313 ± 0.0089 | 0.942 ± 0.053 | 0.91 ± 0.035 | 0.676 ± 0.058 | 0.43 ± 0.04 | 0.972 ± 0.032 | 1.01 ± 0.046 | 0.933 ± 0.048 | 0.938 ± 0.073 | 0.86 ± 0.049 | 0.696 ± 0.024 | 0.48 ± 0.012 | 0.348 ± 0.036 |
| S68 BREAST | 0.854 ± 0.16 | 0.785 ± 0.32 | 0.92 ± 0.03 | 0.976 ± 0.16 | 1.28 ± 0.18 | 0.99 ± 0.07 | 0.936 ± 0.25 | 1.01 ± 0.22 | 0.828 ± 0.28 | 0.903 ± 0.17 | 1.15 ± 0.28 | 1.13 ± 0.24 | 0.697 ± 0.21 | 0.926 ± 0.2 | 0.541 ± 0.13 | 0.445 ± 0.013 |
